Read-outs that look alike come from different tables or passages of the source.
Tests used:
Assay in all cases: microbe, parasite or virus in culture
M. bovis BCG [1] = system: T1, M. bovis BCG; set-up: species or system M. tuberculosis H37Rv or N0145; details: Mycobacterium tuberculosis variant bovis BCG, 15 h, read-out: BCG / −Q203
T1 construct: BCG

M. tuberculosis H37Rv [2] = system: T2, M. tuberculosis H37Rv; set-up: ATP depletion in replicating mycobacteria without Q203, BacTiter-Glo luminescence; details: Mycobacterium tuberculosis, 15 h, read-out: Replicating ATP IC50 (µM) H37Rv / −Q203
T2 construct: H37Rv

M. tuberculosis N0145 [3] = system: T3, M. tuberculosis N0145; set-up: species or system M. bovis BCG, M. tuberculosis H37Rv or N0145; details: Mycobacterium tuberculosis, N0145, 15 h; read-out: N0145 / –Q203
T3 construct: N0145 (clinical isolate)

M. bovis BCG [4] = system: T1, M. bovis BCG; set-up: species or system M. tuberculosis H37Rv or N0145; details: Mycobacterium tuberculosis variant bovis BCG, 15 h, read-out: BCG / −Q203; remark: listed apart in the source
M. tuberculosis H37Rv [5] = system: T2, M. tuberculosis H37Rv; set-up: species or system M. bovis BCG, M. tuberculosis H37Rv or N0145; details: Mycobacterium tuberculosis, 15 h, read-out: Replicating ATP IC50 (µM) H37Rv / −Q203
M. tuberculosis N0145 [6] = system: T3, M. tuberculosis N0145; set-up: species or system M. bovis BCG, M. tuberculosis H37Rv or N0145
[7] = Mycobacterium tuberculosis, N0145, 15 h; read-out: N0145 / –Q203

| Structure (SMILES) | IC50 (M. bovis BCG [1]) | IC50 (M. tuberculosis H37Rv [2]) | IC50 (M. tuberculosis N0145 [3]) | IC50 (M. bovis BCG [4]) | IC50 (M. tuberculosis H37Rv [5]) | IC50 (M. tuberculosis N0145 [6]; [7]) | IC50 (M. tuberculosis N0145 [6]; Mycobacterium tuberculosis, N0145, 15 h, read-out: N0145 / –Q203) |
| --- | --- | --- | --- | --- | --- | --- | --- |
| Fc1ccc2ncnc(NCCc3ccc(OC(F)(F)F)cc3)c2c1 [16a] | > 25 µM | > 25 µM | > 25 µM |  |  |  |  |
| FC(F)(F)Oc1ccc(CCNc2ncnc3cc(Br)ccc23)cc1 [21a] | > 25 µM | > 25 µM | > 25 µM |  |  |  |  |
| CC(C)=CCC/C(C)=C/CC/C(C)=C/Cc1c(C)[nH]c2ccccc2c1=O [aurachin D] |  |  |  | > 25 µM | 5.5 ± 1.11 µM | > 25 µM |  |
| Cc1nc(NCCc2ccc(OC(F)(F)F)cc2)c2ccccc2n1 [24a] | 12.2 ± 0.737 µM | 7.5 ± 1.02 µM | 8.2 ± 0.654 µM |  |  |  |  |
| Clc1ccc(CCNc2ncnc3ccccc23)cc1 [8a] |  |  |  | > 25 µM | > 25 µM | > 25 µM |  |
| FC(F)(F)Oc1ccc(CCNc2ncnc3cc(C(F)(F)F)ccc23)cc1 [22a] | > 25 µM | > 25 µM | > 25 µM |  |  |  |  |
| FC(F)(F)c1ccccc1CCNc1ncnc2ccccc12 [15a, Quinazolin-4-yl{2-[2-(trifluromethyl)phenyl]ethyl}amine] |  |  |  | > 25 µM | > 25 µM | > 25 µM |  |
| Cc1ccc2ncnc(NCCc3ccc(OC(F)(F)F)cc3)c2c1 [17a] | > 25 µM | > 25 µM | > 25 µM |  |  |  |  |
| FC(F)(F)c1ccc(Oc2ccc(Nc3ncnc4ccccc34)cc2)cc1 [compound 2] |  |  |  | > 25 µM | > 25 µM | > 25 µM |  |
| c1ccc(CCNc2ncnc3ccccc23)cc1 [compound 3] |  |  |  | > 25 µM | > 25 µM |  | > 25 µM |
| CCOc1cccc(CCNc2ncnc3ccccc23)c1 [14a] |  |  |  | > 25 µM | > 25 µM | > 25 µM |  |
| COc1ccc2c(NCCc3ccc(OC(F)(F)F)cc3)ncnc2c1 [23a] | > 25 µM | > 25 µM | > 25 µM |  |  |  |  |
| COc1ccc2ncnc(NCCc3ccc(OC(F)(F)F)cc3)c2c1 [18a] | > 25 µM | > 25 µM | > 25 µM |  |  |  |  |
| Fc1ccc2c(NCCc3ccc(OC(F)(F)F)cc3)ncnc2c1 [19a, (7-Fluoroquinazolin-4-yl){2-[4-(trifluormethoxy)phenyl]ethyl}amine] | > 25 µM | > 25 µM | > 25 µM |  |  |  |  |
| COc1nc2ccc(Br)cc2cc1[C@@H](c1ccccc1)[C@@](O)(CCN(C)C)c1cccc2ccccc12 [BDQ] |  |  |  | 0.17 ± 0.019 µM | 0.06 ± 0.019 µM | 0.05 ± 0.003 µM |  |
| FC(F)(F)Oc1ccc(CCNc2ncnc3cc(Cl)ccc23)cc1 [20a] | > 25 µM | > 25 µM | > 25 µM |  |  |  |  |
| FC(F)(F)Oc1ccc(CCNc2nc(C3CC3)nc3ccccc23)cc1 [25a] | 8.5 ± 1.53 µM | 7.6 ± 1.03 µM | 7.3 ± 1.05 µM |  |  |  |  |
| FC(F)(F)Oc1ccc(CCNc2ncnc3ccccc23)cc1 [7a, Quinazolin-4-yl{2-[4-(trifluoromethoxy)phenyl]ethyl}amine] |  |  |  | > 25 µM | > 25 µM | > 25 µM |  |
| FC(F)(F)c1ccc(CCNc2ncnc3ccccc23)cc1 [6a, Quinazolin-4-yl{2-[4-(trifluoromethyl)phenyl]ethyl}amine] |  |  |  | > 25 µM | > 25 µM | > 25 µM |  |
| FC(F)(F)Oc1cccc(CCNc2ncnc3ccccc23)c1 [13a] |  |  |  | > 25 µM | > 25 µM | > 25 µM |  |
| Cc1ccc(CCNc2ncnc3ccccc23)cc1 [10a] |  |  |  | > 25 µM | > 25 µM | > 25 µM |  |
| CC(C)(C)c1ccc(CCNc2ncnc3ccccc23)cc1 [12a, {2-[4-(tert-Butyl)phenyl]ethyl}quinazolin-4-ylamine] |  |  |  | > 25 µM | > 25 µM | > 25 µM |  |
| FS(F)(F)(F)(F)c1ccc(CCNc2ncnc3ccccc23)cc1 [9a] |  |  |  | > 25 µM | > 25 µM | > 25 µM |  |
| Cc1nc(NCCc2ccc(OC(F)(F)F)cc2)c2ccc(F)cc2n1 [26a] | > 25 µM | 23.6 ± 7.81 µM | > 25 µM |  |  |  |  |
| COc1ccc(CCNc2ncnc3ccccc23)cc1 [11a] |  |  |  | > 25 µM | > 25 µM | > 25 µM |  |

— paper PMC9873234, “Syntheses and Structure–Activity Relationships of N-Phenethyl-Quinazolin-4-yl-Amines as Potent Inhibitors of Cytochrome bd Oxidase in Mycobacterium tuberculosis” (Applied sciences (Basel, Switzerland), 2021)
